In US20220056019A1, “FARNESOID X RECEPTOR AGONISTS AND USES THEREOF” (Metacrine, Inc., priority 2018, published 2022):
pEC50: −log10 of the molar value.

biological target: T1, hFXR (Homo sapiens, UniProt Q96RI1); assay: In Vitro FXR Assay (TK): TK-ECRE-luc reporter in transfected CV-1 cells; assay type: cell-based; conditions: 18 hrs incubation, luminescence
T1 construct: expressed in transfected cells; host or cells: CV-1 cells
T1 sequence (Q96RI1 1-486): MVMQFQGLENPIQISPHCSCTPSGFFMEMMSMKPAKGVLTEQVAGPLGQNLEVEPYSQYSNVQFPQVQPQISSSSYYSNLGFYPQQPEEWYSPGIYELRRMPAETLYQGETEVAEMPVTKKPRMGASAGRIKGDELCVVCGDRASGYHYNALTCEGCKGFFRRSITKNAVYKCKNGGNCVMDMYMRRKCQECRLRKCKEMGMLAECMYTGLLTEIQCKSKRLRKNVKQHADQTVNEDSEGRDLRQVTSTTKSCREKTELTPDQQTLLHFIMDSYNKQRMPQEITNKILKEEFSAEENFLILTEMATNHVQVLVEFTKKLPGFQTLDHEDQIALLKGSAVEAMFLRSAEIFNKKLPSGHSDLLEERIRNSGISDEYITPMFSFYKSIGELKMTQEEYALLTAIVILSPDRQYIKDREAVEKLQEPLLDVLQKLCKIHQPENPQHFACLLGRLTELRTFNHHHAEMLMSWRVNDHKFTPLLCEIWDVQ
T1 sequence (P19793 1-462 partner): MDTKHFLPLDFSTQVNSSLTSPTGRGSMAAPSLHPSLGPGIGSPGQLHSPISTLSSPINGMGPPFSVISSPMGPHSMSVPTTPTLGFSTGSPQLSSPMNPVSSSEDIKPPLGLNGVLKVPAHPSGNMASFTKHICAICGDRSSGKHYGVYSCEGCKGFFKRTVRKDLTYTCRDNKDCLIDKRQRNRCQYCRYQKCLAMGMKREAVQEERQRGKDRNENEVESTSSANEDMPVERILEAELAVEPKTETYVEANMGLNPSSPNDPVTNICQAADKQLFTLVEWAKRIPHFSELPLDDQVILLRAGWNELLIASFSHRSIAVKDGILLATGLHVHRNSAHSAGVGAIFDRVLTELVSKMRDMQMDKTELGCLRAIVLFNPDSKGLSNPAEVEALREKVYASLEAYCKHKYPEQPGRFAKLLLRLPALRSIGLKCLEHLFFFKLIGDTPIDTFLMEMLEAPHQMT
Summary of the method: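 Reporter gene assay: CV-1 cells co-expressing hFXR, hRXR, TK-ECRE-luc and pCMX-YFP after overnight transfection in charcoal-stripped serum. Treatment with serially diluted compounds lasted 18 hrs at 37 °C, followed by cell lysis and a luminescence measurement.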

Row | pEC50 | SMILES
1 | ≥ 7.30 | COc1ccc([C@H]2CC[C@H](CN(c3cc(-c4cnn(C(C)C)c4)ccn3)C(=O)[C@H]3CC[C@H](OC(=O)NC(CF)CF)CC3)CC2)cc1C [Compound 2.35, trans-4-((4-(1-Isopropyl-1H-pyrazol-4-yl)pyridin-2-yl)(((trans)-4-(4-methoxy-3-methylphenyl)cyclohexyl)methyl)carbamoyl) cyclohexyl(1,3-difluoropropan-2-yl) carbamate]
2 | ≥ 7.30 | CCc1nc(-c2ccnc(N(C[C@H]3CC[C@H](c4ccc(OC)c(C)c4)CC3)C(=O)[C@H]3CC[C@H](OC(=O)N4CC(O)C4)CC3)c2)co1 [Compound 2.36, trans-4-((4-(2-Ethyloxazol-4-yl)pyridin-2-yl)((trans-4-(4-methoxy-3-methylphenyl)cyclohexyl)methyl)carbamoyl)cyclohexyl 3-hydroxyazetidine-1-carboxylate]
3 | ≥ 7.30 | COc1ccc([C@H]2CC[C@H](CN(c3cc(-c4cnc(C(C)C)o4)ccn3)C(=O)[C@H]3CC[C@H](OC(=O)N4CC(O)C4)CC3)CC2)cc1C [Compound 2.37, trans-4-((4-(2-Isopropyloxazol-5-yl)pyridin-2-yl)((trans-4-(4-methoxy-3-methylphenyl)cyclohexyl)methyl)carbamoyl)cyclohexyl 3-hydroxyazetidine-1-carboxylate]
4 | ≥ 7.30 | COc1ccc([C@H]2CC[C@H](CN(c3cc(-c4coc(C(C)C)n4)ccn3)C(=O)[C@H]3CC[C@H](OC(=O)NC(C)C)CC3)CC2)cc1C [Compound 2.44, trans-4-((4-(2-Isopropyloxazol-4-yl)pyridin-2-yl)(((trans)-4-(4-methoxy-3-methylphenyl)cyclohexyl)methyl)carbamoyl) cyclohexyl isopropylcarbamate]
5 | ≥ 7.30 | CCc1nc(-c2ccnc(N(C[C@H]3CC[C@H](c4ccc(OC)c(C)c4)CC3)C(=O)[C@H]3CC[C@H](OC(=O)NCC(C)(C)O)CC3)c2)co1 [Compound 2.49, trans-4-((4-(2-Ethyloxazol-4-yl)pyridin-2-yl)((trans-4-(4-methoxy-3-methylphenyl)cyclohexyl)methyl)carbamoyl)cyclohexyl (2-hydroxy-2-methylpropyl)carbamate]
6 | ≥ 7.30 | COc1ccc([C@H]2CC[C@H](CN(c3cc(-c4cnc(C5CC5)o4)ccn3)C(=O)[C@H]3CC[C@H](OC(=O)NCC(C)(C)O)CC3)CC2)cc1C [Compound 2.50, trans-4-((4-(2-Cyclopropyloxazol-5-yl)pyridin-2-yl)((trans-4-(4-methoxy-3-methylphenyl)cyclohexyl)methyl)carbamoyl)cyclohexyl (2-hydroxy-2-methylpropyl)carbamate]
7 | ≥ 7.30 | COc1ccc([C@H]2CC[C@H](CN(c3cc(-c4cnn(C(C)C)c4)ccn3)C(=O)[C@H]3CC[C@H](OC(=O)NC4COC4)CC3)CC2)cc1C [Compound 2.51]

The remaining lines, values behind:

Row | SMILES | pEC50
8 | COc1ccc([C@H]2CC[C@H](CN(c3cc(-c4cnn(C(C)C)c4)ccn3)C(=O)[C@H]3CC[C@H](OC(=O)NC[C@@H](F)CF)CC3)CC2)cc1C [Compound 2.32, trans-4-((4-(1-Isopropyl-1H-pyrazol-4-yl)pyridin-2-yl)(((trans)-4-(4-methoxy-3-methylphenyl)cyclohexyl)methyl)carbamoyl) cyclohexyl((R)-2,3-difluoropropyl)carbamate] | ≥ 7.30
9 | COc1ccc([C@H]2CC[C@H](CN(c3cc(-c4cnn(C(C)C)c4)ccn3)C(=O)[C@H]3CC[C@H](OC(=O)NC[C@H](F)CF)CC3)CC2)cc1C [Compound 2.33, trans-4-((4-(1-Isopropyl-1H-pyrazol-4-yl)pyridin-2-yl)(((trans)-4-(4-methoxy-3-methylphenyl)cyclohexyl)methyl)carbamoyl) cyclohexyl((S)-2,3-difluoropropyl) carbamate] | ≥ 7.30
10 | COc1ccc([C@H]2CC[C@H](CN(c3cc(-c4cnn(C(C)C)c4)ccn3)C(=O)[C@H]3CC[C@H](OC(=O)NCC(F)(F)CO)CC3)CC2)cc1C [Compound 2.34, trans-4-((4-(1-Isopropyl-1H-pyrazol-4-yl)pyridin-2-yl)(((trans)-4-(4-methoxy-3-methylphenyl)cyclohexyl)methyl)carbamoyl) cyclohexyl(2,2-difluoro-3-hydroxypropyl)carbamate] | ≥ 7.30
11 | COc1ccc([C@H]2CC[C@H](CN(c3cc(-c4cc(C5CC5)no4)ccn3)C(=O)[C@H]3CC[C@H](OC(=O)N4CC(O)C4)CC3)CC2)cc1C [Compound 2.38, trans-4-((4-(3-Cyclopropylisoxazol-5-yl)pyridin-2-yl)((trans-4-(4-methoxy-3-methylphenyl)cyclohexyl)methyl)carbamoyl)cyclohexyl 3-hydroxyazetidine-1-carboxylate] | ≥ 7.30
12 | COc1ccc([C@H]2CC[C@H](CN(c3cc(-n4cnc(C5CC5)n4)ccn3)C(=O)[C@H]3CC[C@H](OC(=O)N4CC(O)C4)CC3)CC2)cc1C [Compound 2.39, trans-4-((4-(3-Cyclopropyl-1H-1,2,4-triazol-1-yl)pyridin-2-yl)((trans-4-(4-methoxy-3-methylphenyl)cyclohexyl)methyl)carbamoyl)cyclohexyl 3-hydroxyazetidine-1-carboxylate] | ≥ 7.30
13 | COc1ccc([C@H]2CC[C@H](CN(c3cc(-c4cnc(C(C)C)s4)ccn3)C(=O)[C@H]3CC[C@H](OC(=O)N4CCN(C)CC4)CC3)CC2)cc1C [Compound 2.40, trans-4-((4-(2-Isopropylthiazol-5-yl)pyridin-2-yl)((trans-4-(4-methoxy-3-methylphenyl)cyclohexyl)methyl)carbamoyl)cyclohexyl 4-methylpiperazine-1-carboxylate] | ≥ 7.30
14 | COc1ccc([C@H]2CC[C@H](CN(c3cc(-c4cnn(C(C)C)c4)ccn3)C(=O)[C@H]3CC[C@H](OC(=O)NC[C@@H](F)CO)CC3)CC2)cc1C [Compound 2.41, trans-4-((4-(1-Isopropyl-1H-pyrazol-4-yl)pyridin-2-yl) (((trans)-4-(4-methoxy-3-methylphenyl)cyclohexyl)methyl)carbamoyl) cyclohexyl((R)-2-fluoro-3-hydroxypropyl)carbamate] | ≥ 7.30
15 | CCc1ncc(-c2ccnc(N(C[C@H]3CC[C@H](c4ccc(OC)c(C)c4)CC3)C(=O)[C@H]3CC[C@H](OC(=O)N4CC(O)C4)CC3)c2)s1 [Compound 2.42, trans-4-((4-(2-Ethylthiazol-5-yl)pyridin-2-yl)((trans-4-(4-methoxy-3-methylphenyl)cyclohexyl)methyl)carbamoyl)cyclohexyl 3-hydroxyazetidine-1-carboxylate] | ≥ 7.30
16 | CCOc1ncc(-c2ccnc(N(C[C@H]3CC[C@H](c4ccc(OC)c(C)c4)CC3)C(=O)[C@H]3CC[C@H](OC(=O)N4CC(O)C4)CC3)c2)s1 [Compound 2.43, trans-4-((4-(2-Ethoxythiazol-5-yl)pyridin-2-yl)((trans-4-(4-methoxy-3-methylphenyl)cyclohexyl)methyl)carbamoyl)cyclohexyl 3-hydroxyazetidine-1-carboxylate] | ≥ 7.30
17 | COc1ccc([C@H]2CC[C@H](CN(c3cc(-c4cnc(C5CC5)s4)ccn3)C(=O)[C@H]3CC[C@H](OC(=O)NC(C)C)CC3)CC2)cc1C [Compound 2.45, trans-4-((4-(2-Cyclopropylthiazol-5-yl)pyridin-2-yl)(((trans)-4-(4-methoxy-3-methylphenyl)cyclohexyl)methyl)carbamoyl)cyclohexyl isopropylcarbamate] | ≥ 7.30
18 | COc1ccc([C@H]2CC[C@H](CN(c3cc(-c4coc(C5CC5)n4)ccn3)C(=O)[C@H]3CC[C@H](OC(=O)NC(C)C)CC3)CC2)cc1C [Compound 2.46, trans-4-((4-(2-Cyclopropyloxazol-4-yl)pyridin-2-yl)((trans-4-(4-methoxy-3-methylphenyl)cyclohexyl)methyl)carbamoyl)cyclohexyl isopropylcarbamate] | ≥ 7.30
19 | COc1ccc([C@H]2CC[C@H](CN(c3cc(-c4cnc(C(C)C)s4)ccn3)C(=O)[C@H]3CC[C@H](OC(=O)NC(C)C)CC3)CC2)cc1C [Compound 2.47, trans-4-((4-(2-Isopropylthiazol-5-yl)pyridin-2-yl)((trans-4-(4-methoxy-3-methylphenyl)cyclohexyl)methyl)carbamoyl)cyclohexyl isopropylcarbamate] | ≥ 7.30
20 | CCc1nc(-c2ccnc(N(C[C@H]3CC[C@H](c4ccc(OC)c(C)c4)CC3)C(=O)[C@H]3CC[C@H](OC(=O)N4CCN(C)CC4)CC3)c2)co1 [Compound 2.48, trans-4-((4-(2-Ethyloxazol-4-yl)pyridin-2-yl)((trans-4-(4-methoxy-3-methylphenyl)cyclohexyl)methyl)carbamoyl)cyclohexyl 4-methylpiperazine-1-carboxylate] | 6.00 to 7.30
